Data published in the NIST ThermoML archive (doi:10.1016/j.fluid.2014.09.017).
Values joined by “and” are separate entries in the source; they are usually repeats but may differ in a detail not shown here. Equal entries are not always repeated. Numbers after ± are expanded uncertainties.

Conditions: for vapor or sublimation pressure: Liquid, Closed cell (Static) method; for speed of sound: Gas, Cylindrical cavity resonance method

CC(C)C [2-methylpropane]
Conditions	vapor or sublimation pressure
258.92 K	91.82 ± 0.62 kPa
264.24 K	112.99 ± 0.63 kPa
265.67 K	119.32 ± 0.63 kPa
267.2 K	126.35 ± 0.64 kPa
273 K	156 ± 0.65 kPa
273.15 K	156.85 ± 0.65 kPa
275.31 K	169.22 ± 0.66 kPa
278.94 K	191.71 ± 0.67 kPa
280 K	198.68 ± 0.68 kPa
281.24 K	207.12 ± 0.69 kPa
282.81 K	218.08 ± 0.69 kPa
284.02 K	226.9 ± 0.7 kPa
285.82 K	240.51 ± 0.71 kPa
287.25 K	251.7 ± 0.72 kPa
288.67 K	263.24 ± 0.73 kPa
290 K	274.38 ± 0.74 kPa
291.96 K	291.5 ± 0.75 kPa
291.99 K	291.68 ± 0.75 kPa
293.5 K	305.47 ± 0.77 kPa
294.79 K	317.56 ± 0.78 kPa
296.3 K	332.18 ± 0.79 kPa
299.97 K	369.83 ± 0.83 kPa
301.05 K	381.52 ± 0.84 kPa
302.76 K	400.6 ± 0.86 kPa
304.46 K	420.14 ± 0.88 kPa
305.97 K	438.06 ± 0.9 kPa and 438.12 ± 0.9 kPa
307.39 K	455.55 ± 0.92 kPa
308.82 K	473.64 ± 0.94 kPa
310 K	488.84 ± 0.96 kPa
312.11 K	516.99 ± 0.99 kPa
314.51 K	550.49 ± 1 kPa
314.52 K	550.72 ± 1 kPa
316.61 K	581.22 ± 1.1 kPa
320 K	633.44 ± 1.1 kPa
322 K	665.79 ± 1.2 kPa
324.13 K	701.6 ± 1.2 kPa
326 K	734.19 ± 1.3 kPa and 734.22 ± 1.3 kPa
326.58 K	744.59 ± 1.3 kPa
328 K	770.36 ± 1.3 kPa
328.63 K	781.99 ± 1.3 kPa
330 K	807.67 ± 1.4 kPa
332 K	846.32 ± 1.4 kPa
332.15 K	849.38 ± 1.4 kPa
334 K	886.42 ± 1.5 kPa
334.71 K	900.88 ± 1.5 kPa
338.87 K	989.76 ± 1.6 kPa
342 K	1060.5 ± 1.7 kPa
342.57 K	1073.8 ± 1.7 kPa
344 K	1107.8 ± 1.8 kPa
344.84 K	1128.1 ± 1.8 kPa
347.48 K	1193.6 ± 1.9 kPa
350 K	1258.8 ± 2 kPa
354.89 K	1392.5 ± 2.2 kPa
357.13 K	1457.2 ± 2.3 kPa
360 K	1543.1 ± 2.5 kPa
362.41 K	1618.3 ± 2.6 kPa
364.65 K	1690.7 ± 2.7 kPa
367.12 K	1773.1 ± 2.8 kPa
370 K	1872.6 ± 3 kPa
373.25 K	1990.5 ± 3.2 kPa
375.82 K	2087.2 ± 3.3 kPa
377.95 K	2170.2 ± 3.5 kPa
380 K	2252.2 ± 3.6 kPa
382.69 K	2363.4 ± 3.8 kPa
385.14 K	2468.3 ± 3.9 kPa
387.96 K	2593.6 ± 4.1 kPa
390 K	2687.2 ± 4.3 kPa
390.02 K	2688.3 ± 4.3 kPa
392.64 K	2812.8 ± 4.5 kPa
392.7 K	2815.5 ± 4.5 kPa
394.37 K	2897.1 ± 4.6 kPa
394.77 K	2917.1 ± 4.6 kPa
397.49 K	3055 ± 4.9 kPa
399.62 K	3166.9 ± 5 kPa
400 K	3187.2 ± 5.1 kPa
400.09 K	3191.9 ± 5.1 kPa
400.19 K	3197.4 ± 5.1 kPa
402.45 K	3320.9 ± 5.3 kPa
402.46 K	3321.8 ± 5.3 kPa
403.93 K	3404.5 ± 5.4 kPa
404.71 K	3449.2 ± 5.5 kPa
405 K	3465.7 ± 5.5 kPa
405.99 K	3523.6 ± 5.6 kPa

Conditions	speed of sound [m/s]
270 K, 54.63 kPa	203.09 ± 0.073
270 K, 68.26 kPa	202.24 ± 0.073
270 K, 75.99 kPa	201.75 ± 0.073
270 K, 86.24 kPa	201.09 ± 0.073
270 K, 94.7 kPa	200.54 ± 0.073
270 K, 103.06 kPa	200 ± 0.073
270 K, 111.76 kPa	199.42 ± 0.072
280 K, 52.41 kPa	206.99 ± 0.073
280 K, 62.45 kPa	206.43 ± 0.073
280 K, 70.73 kPa	205.97 ± 0.073
280 K, 82.68 kPa	205.28 ± 0.073
280 K, 94.96 kPa	204.58 ± 0.073
280 K, 108.81 kPa	203.77 ± 0.073
280 K, 121.29 kPa	203.03 ± 0.072
280 K, 133.05 kPa	202.32 ± 0.072
280 K, 145.5 kPa	201.57 ± 0.072
290 K, 58.49 kPa	210.38 ± 0.073
290 K, 78.62 kPa	209.35 ± 0.073
290 K, 97.12 kPa	208.38 ± 0.073
290 K, 116.17 kPa	207.38 ± 0.073
290 K, 139.15 kPa	206.14 ± 0.073
290 K, 147.23 kPa	205.68 ± 0.072
290 K, 158.57 kPa	205.07 ± 0.073
290 K, 161.39 kPa	204.9 ± 0.073
290 K, 173.83 kPa	204.22 ± 0.072
290 K, 177.47 kPa	204 ± 0.073
290 K, 193.67 kPa	203.09 ± 0.072
300 K, 37.47 kPa	214.93 ± 0.074
300 K, 57.39 kPa	214.01 ± 0.074
300 K, 80.89 kPa	212.92 ± 0.073
300 K, 107.72 kPa	211.65 ± 0.073
300 K, 127.82 kPa	210.67 ± 0.073
300 K, 150.12 kPa	209.58 ± 0.073
300 K, 168.57 kPa	208.67 ± 0.073
300 K, 201.3 kPa	207 ± 0.072
300 K, 235.37 kPa	205.23 ± 0.072
310 K, 45.64 kPa	218.03 ± 0.074
310 K, 76.78 kPa	216.71 ± 0.074
310 K, 107.37 kPa	215.4 ± 0.074
310 K, 141.66 kPa	213.88 ± 0.073
310 K, 178.43 kPa	212.23 ± 0.073
310 K, 212.65 kPa	210.65 ± 0.073
310 K, 247.33 kPa	209.01 ± 0.073
310 K, 299.72 kPa	206.46 ± 0.072
320 K, 57.93 kPa	220.96 ± 0.075
320 K, 83.1 kPa	219.97 ± 0.075
320 K, 109.17 kPa	218.94 ± 0.074
320 K, 159.3 kPa	216.91 ± 0.074
320 K, 192.01 kPa	215.56 ± 0.074
320 K, 262.64 kPa	212.56 ± 0.073
320 K, 289.64 kPa	211.37 ± 0.073
320 K, 343.58 kPa	208.94 ± 0.072
320 K, 383.31 kPa	207.1 ± 0.072
330 K, 39.62 kPa	224.99 ± 0.076
330 K, 69.47 kPa	223.92 ± 0.075
330 K, 107.25 kPa	222.55 ± 0.075
330 K, 151.31 kPa	220.92 ± 0.075
330 K, 195.14 kPa	219.27 ± 0.074
330 K, 246.95 kPa	217.27 ± 0.074
330 K, 297.38 kPa	215.27 ± 0.073
330 K, 339.74 kPa	213.55 ± 0.073
330 K, 422.84 kPa	210.06 ± 0.072
330 K, 480.1 kPa	207.54 ± 0.072
